Measurements as given in US6476004B1, “Pharmaceutical composition” (Mitsubishi Pharma Corporation, priority 1996, dated 2002).

Assay: Behaviour of the aqueous solution of the present compound
Format: physicochemical
Experimental: When 2-amino-2-[2-(4-octylphenyl)ethyl]propane-1,3-diol or a pharmaceutical acceptable acid addition salt (particularly hydrochloride) is made an aqueous solution, the solution is observed foaming and shown hemolysis and local irritation at 0.01-20% by weight. When the present compound is made the aqueous solution at a higher concentration than 0.1% by weight, the present compound is dissolved by micellization. On the other hand, in the aqueous solution at a lower concentration than 0.05% by weight, the present compound is dissolved as a solution without micellization. […] The present invention characterizes that, by adding a cyclodextrin to the said aqueous solution, the problems such as foaming, hemolysis and local irritation, as well as prevention of crystalline deposits based on micellization, are settled at the same time.

With `CCCCCCCCc1ccc(CCC(N)(CO)CO)cc1.Cl` [present compound, 2-amino-2-[2-(4-octylphenyl)ethyl]propane-1,3-diol hydrochloride] the “concentration of aqueous solution at which crystalline deposits are found” value was 0.05-0.1 % by weight, the “concentration of aqueous solution at which foaming, hemolysis and local irritation are shown” value was 0.01-20 % by weight and the “concentration of aqueous solution at which the compound is dissolved by micellization” value was greater than 0.1 % by weight. For the same compound, the “concentration of aqueous solution at which the compound is dissolved without micellization” value was less than 0.05 % by weight.
